Results from article PMC10283505, “CVM-1118 (foslinanib), a 2-phenyl-4-quinolone derivative, promotes apoptosis and inhibits vasculogenic mimicry via targeting TRAP1” (Pathology and Oncology Research, 2023).

How the values were obtained:
[1] = Cell viability at VM-inhibiting concentration; type: cell-based; conditions: human, human melanoma cells; 10 nM; read-out: percentage of viable cells
Nodal = assay: Western blot of Nodal (ProNodal) protein; type: cell-based, human; conditions: C8161, 10 nM, 24 h, corrected to β-actin
Method: Cells at 80% confluence were rinsed with PBS, harvested by scrapping into a modified RIPA buffer plus protease inhibitor cocktail using 100 μL buffer per 1 × 10^6 cells. After sonication and centrifugation, the protein concentrations in the supernatants were determined using a BCA assay (Thermo Fisher Scientific). […] Nodal was detected using a mouse monoclonal anti-Nodal antibody (sc-373910; Santa Cruz; 1 μg/ml in 20 mM Tris/150 mM NaCl/0.1% [w/v] Tween 20, pH 7.4 [TBST] plus 5% BSA) followed by an anti-mouse plus horseradish peroxidase (HRP) secondary antibody (NXA931; GE Healthcare; 1 μg/ml in TBST plus 5% BSA) and enhanced chemiluminescence (ECL; GE Healthcare). Smad2 was detected using a rabbit polyclonal anti-Smad2/3 antibody (07-408; Millipore; 1 μg/ml in TBST plus 5% BSA) followed by an anti-rabbit plus HRP secondary antibody (NA934V; GE Healthcare; 1 μg/ml in TBST plus 5% BSA) and ECL. […] To assess relative changes in protein expression, the exposed films were digitized using a ChemiDoc XRS imager (Bio-Rad Laboratories) and the relative amount of protein determined against the untreated control cells normalized to a value of 1.0 using the imager’s Quantity One software package (Bio-Rad Laboratories) and corrected for loading of protein into each lane against the β-actin protein measured in the control lane.

HOP-62 = assay: NCI 60 cytotoxicity screening; type: cell-based; conditions: Homo sapiens; HOP-62, NSCLC
UACC-257 = assay: NCI 60 cytotoxicity screening; type: cell-based; conditions: Homo sapiens; UACC-257, Melanoma
NCI/ADR-RES = assay: NCI 60 cytotoxicity screening; type: cell-based; conditions: Homo sapiens, Ovarian
Catenin α2 = target: T1, Catenin α2 (Homo sapiens, UniProt P26232); assay: Surface plasmon resonance (Biacore); type: binding; conditions: Catenin α2, SPR
T1 sequence (P26232 1-953): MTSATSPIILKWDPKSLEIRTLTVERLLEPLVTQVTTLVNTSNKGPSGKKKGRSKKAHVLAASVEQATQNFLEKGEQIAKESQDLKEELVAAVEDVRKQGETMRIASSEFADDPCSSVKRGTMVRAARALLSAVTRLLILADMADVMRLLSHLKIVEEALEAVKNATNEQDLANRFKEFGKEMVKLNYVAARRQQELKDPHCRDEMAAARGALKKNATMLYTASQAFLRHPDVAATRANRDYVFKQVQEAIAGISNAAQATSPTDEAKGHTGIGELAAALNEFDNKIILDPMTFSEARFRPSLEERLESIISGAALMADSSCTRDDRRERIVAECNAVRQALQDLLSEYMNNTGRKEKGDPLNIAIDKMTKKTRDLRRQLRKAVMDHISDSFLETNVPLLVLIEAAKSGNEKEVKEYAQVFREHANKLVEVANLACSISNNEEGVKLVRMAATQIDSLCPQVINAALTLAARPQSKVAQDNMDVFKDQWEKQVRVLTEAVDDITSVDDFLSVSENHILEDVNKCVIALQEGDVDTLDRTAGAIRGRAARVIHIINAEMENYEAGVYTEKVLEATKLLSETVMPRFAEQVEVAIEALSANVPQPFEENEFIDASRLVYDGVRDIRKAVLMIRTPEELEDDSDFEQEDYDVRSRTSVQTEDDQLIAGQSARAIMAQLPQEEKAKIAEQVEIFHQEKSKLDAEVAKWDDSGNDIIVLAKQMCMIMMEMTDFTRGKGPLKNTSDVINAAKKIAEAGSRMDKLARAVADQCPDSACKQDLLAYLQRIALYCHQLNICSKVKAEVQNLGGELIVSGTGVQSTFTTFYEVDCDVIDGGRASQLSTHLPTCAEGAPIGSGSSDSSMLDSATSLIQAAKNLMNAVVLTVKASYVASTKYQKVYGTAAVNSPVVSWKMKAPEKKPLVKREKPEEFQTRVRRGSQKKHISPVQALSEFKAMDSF

SF-539 = assay: NCI 60 cytotoxicity screening; type: cell-based; conditions: Homo sapiens; SF-539, CNS

With `COc1ccc2[nH]c(-c3cccc(F)c3)cc(=O)c2c1OP(=O)(O)O` [CVM-1118] the viability at 0.01 µM [1] was over 90% and the “reduction of Nodal protein levels” value (Nodal) was 63%.
For `COc1ccc2[nH]c(-c3cccc(F)c3)cc(=O)c2c1O` [CVM-1125], the GI50 (HOP-62) was 0.0496 µM, the GI50 (UACC-257) was 0.0337 µM and the GI50 (NCI/ADR-RES) was 0.0208 µM. For the same compound, the “Association (ka)” value (Catenin α2) was “No dose dependent interaction”, the “Dissociation (kd)” value (Catenin α2) was “No dose dependent interaction” and the “KD (kd/ka)” value (Catenin α2) was “No dose dependent interaction”. The GI50 (SF-539) was 0.0262 µM.
